Data as given in US20230058623A1, “NOVEL HETEROARYL-TRIAZOLE COMPOUNDS AS PESTICIDES” (Bayer Aktiengesellschaft, priority 2019, published 2023).

Experiments:
Assay type in all cases: in vivo
[1] = tested on: Rhipicephalus (Boophilus) microplus larvae (strain Parkhurst, resistant against synthetic pyrethroids); assay: Rhipicephalus (Boophilus) microplus in-vitro contact test, larval cattle tick; conditions: after 48 hours, read-out: activity (efficacy: larvae dead or moribund); for pest or weed control at 1 µg/cm2, 100 g/ha: application rate 1 μg/cm^2 (=100 g/ha); for pest or weed control at 5 µg/cm2, 500 g/ha: application rate 5 μg/cm^2 (=500 g/ha)
Procedure, shortened: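 Acetone solutions were coated onto glass tube walls, giving 5 μg/cm^2 at 900 ppm. Once dry, 20–50 pyrethroid-resistant Parkhurst larvae were added per tube and held 48 h at 27 °C and 85% RH. Efficacy was scored by negative geotaxis as the percentage of dead or moribund larvae.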

[2] = tested on: adult engorged female ticks (Rhipicephalus microplus); assay: Rhipicephalus (Boophilus) microplus injection test; conditions: 168 h, application rate 4 μg/tick, egg deposition after 7 days, read-out: activity (efficacy: infertile eggs)
Experimental: Rhipicephalus (Boophilus) microplus—Injection Test
(§1) Solvent: dimethyl sulfoxide
To produce a suitable preparation of active compound, 10 mg of active compound are dissolved in 0.5 mL solvent, and the concentrate is diluted with solvent to the desired concentration.
Five adult engorged female ticks (Rhipicephalus microplus) are injected with 1 μL compound solution into the abdomen. The ticks are transferred into replica plates and incubated in a climate chamber.
After 7 days egg deposition of fertile eggs is monitored. Eggs where fertility is not visible are stored in a climate chamber till hatching after about 42 days. An efficacy of 100% means all eggs are infertile; 0% means all eggs are fertile.

[3] = tested on: adult unfed cat fleas (Ctenocephalides felis); assay: Ctenocephalides felis oral test; conditions: 48 h, read-out: activity (mortality)
Experimental: Ctenocephalides felis—Oral Test
as §1
To produce a suitable preparation of active compound, 10 mg of active compound are dissolved in 0.5 mL solvent, and the concentrate is diluted with citrated cattle blood to the desired concentration.
Approximately 20 adult unfed cat fleas (Ctenocephalides felis) are placed in a flea chamber whose top and bottom is covered with gauze. A chamber whose bottom is sealed with parafilm, is filled with the blood-compound solution and placed on top of the flea chamber, so that the fleas can suck the blood. The blood chamber is heated to 37° C. whereas the flea chamber is kept at room temperature.
After 2 days mortality in % is determined. 100% means all the fleas have been killed; 0% means none of the fleas have been killed.

[4] = tested on: larvae of the banded cucumber beetle (Diabrotica balteata); assay: Diabrotica balteata spray test; conditions: 168 h, application rate 100 g/ha (=32 μg/well), after 7 days, wheat seeds, read-out: activity (efficacy: seedlings grown)
Procedure, shortened: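 Wheat seeds germinated 1 day on agar were sprayed with compound diluted in water with 1000 ppm emulsifier, then infested with 10-20 Diabrotica balteata larvae. Efficacy in % scored after 7 days: 100% = seedlings grown as untreated, uninfected control; 0% = no seedlings grown.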

[5] = tested on: fall armyworm larvae (Spodoptera frugiperda); assay: Spodoptera frugiperda spray test; conditions: 168 h, application rate 100 g/ha, after 7 days, maize leaf sections
Procedure, shortened: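 Compound mixed with solvent, diluted with 1000 ppm emulsifier water to test concentrations; sprayed on maize leaf pieces; dried; larvae added; mortality (%) scored at 7 d.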

[6] = tested on: adult brown dog ticks (Rhipicephalus sanguineus); assay: Rhipicephalus sanguineus in-vitro contact test, adult brown dog ticks; conditions: application rate 5 μg/cm^2 (=500 g/ha), after 48 hours, read-out: activity (efficacy: ticks dead or moribund)
Procedure, shortened: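 Acetone solution rolled onto tube walls, 2 h at 30 rpm; 900 ppm → 5 μg/cm^2. Solvent evaporated, 5-10 adults/tube, perforated lid, lying, RT. 48 h: heat plate 45-50° C ≤5 min; immotile/uncoordinated = dead/moribund. 100% = all dead/moribund.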

[7] = tested on: green peach aphid (Myzus persicae); assay: Myzus persicae oral test; conditions: 120 h, read-out: activity (mortality)
Procedure, shortened: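 Oral uptake format: water-diluted acetone concentrate of compound is blended into IPL41 medium carrying 33%+15% sugar and offered under a parafilm membrane. Percentage of dead insects is recorded after 5 days.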

[8] = tested on: adult cat fleas (Ctenocephalides felis); assay: Ctenocephalides felis in-vitro contact test, adult cat flea; conditions: application rate 5 μg/cm^2 (=500 g/ha), after 48 hours, read-out: activity (efficacy: fleas dead or moribund)
Procedure, shortened: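 Acetone solutions of compound were coated onto inner walls of glass tubes (900 ppm giving 5 μg/cm^2) and dried; 5-10 adult C. felis were then held 48 h at room temperature. Efficacy = % fleas dead or moribund, judged by inability to escape a 45-50° C heating plate within 5 min.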

[9] = tested on: adult mosquitoes Aedes aegypti strain MONHEIM; assay: Aedes aegypti test (AEDSAE surface treatment & contact assay); conditions: surface concentration 20 mg/m^2, exposure 30 minutes, 24 hours after contact, read-out: efficacy (mortality)
Experimental: Aedes aegypti Test (AEDSAE Surface Treatment & Contact Assay)
(§2) Solvent: Aceton+2000 ppm rapeseed oil methyl ester (RME)
In order to produce a sufficient, active ingredient containing solution it is necessary to solve the test compound in the solvent-mix (acetone at 2 mg/ml/RME 2000 ppm). This solution is pipetted onto a glazed tile and after evaporation of the acetone, adult mosquitoes of the species Aedes aegypti strain MONHEIM are placed onto the dried surface. The exposure time is 30 minutes.
(§3) Mortality in percent (%) is determined 24 hours after contact of the insects to the treated surface. 100% mortality means that all tested insects are dead, whereas 0% means that no insect died.

[10] = tested on: adult flies Musca domestica strain WHO-N; assay: Musca domestica test (MUSCDO surface treatment & contact assay); conditions: 24 hours after contact, read-out: efficacy (mortality); for mortality at 20 mg/m2: surface concentration 20 mg/m^2, exposure 30 minutes
Experimental: Musca domestica Test (MUSCDO Surface Treatment & Contact Assay)
as §2
In order to produce a sufficient, active ingredient containing solution it is necessary to solve the test compound in the solvent-mix (acetone at 2 mg/ml/RME 2000 ppm). This solution is pipetted onto a glazed tile and after evaporation of the acetone, adult flies of the species Musca domestica strain WHO-N are placed onto the dried surface. The exposure time is 30 minutes.
as §3

[11] = tested on: green peach aphid (Myzus persicae); assay: Myzus persicae spray test; conditions: foliar, 120 h, application rate 100 g/ha, after 5 days, Chinese cabbage leaf disks, read-out: activity (mortality)
Procedure, shortened: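 Chinese cabbage leaf disks infested with all aphid instars were sprayed with compound diluted in water containing emulsifier (1000 ppm). Mortality (%) was scored after 5 days, 100% meaning all aphids killed.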

[12] = tested on: larvae of the southern green stink bug (Nezara viridula); assay: Nezara viridula spray test; conditions: 96 h, after 4 days, barley plants; for mortality at 100 g/ha: application rate 100 g/ha
Experimental: Nezara viridula—Spray Test
To produce a suitable preparation of active compound, 1 part by weight of active compound is mixed with the stated amount of solvent, and the concentrate is diluted with water, containing an emulsifier concentration of 1000 ppm, to the desired concentration. Further test concentrations are prepared by dilution with emulsifier containing water.
Barley plants (Hordeum vulgare) are sprayed with a test solution containing the desired concentration of the active ingredient and are infested with larvae of the southern green stink bug (Nezara viridula).
After 4 days mortality in % is determined. 100% means all the stink bugs have been killed; 0% means none of the stink bugs have been killed.

Row | Compound | pest or weed control at 1 µg/cm2, 100 g/ha [1] [%] | pest or weed control at 5 µg/cm2, 500 g/ha [1] [%] | pest or weed control at 0.004 mg [2] [%] | mortality at 100 ppm [3] [%] | pest or weed control at 32 µg/disc, 100 g/ha [4] [%] | mortality at 100 g/ha [5] [%] | pest or weed control at 5 µg/cm2, 500 g/ha [6] [%] | mortality at 4 ppm [7] [%] | mortality at 20 ppm [7] [%] | pest or weed control at 5 µg/cm2 [8] [%] | mortality at 20 mg/m2 [9] [%] | mortality at 20 mg/m2 [10] [%] | mortality at 100 g/ha [11] [%] | mortality at 100 g/ha [12] [%] | mortality at 4 mg/m2 ([10]; surface concentration 4 mg/m^2, exposure 30 minutes) [%] | mortality at 500 g/ha ([12]; application rate 500 g/ha, read-out: activity (mortality)) [%]
1 | CC(NC(=O)c1cc(C(F)(F)F)cc(C(F)(F)F)c1)c1nc(I)nn1-c1ccc(C(=O)N2CCOCC2)cn1 (racemic) [Example I-84, N-[1-[5-iodo-2-[5-(morpholine-4-carbonyl)-2-pyridyl]-1,2,4-triazol-3-yl]ethyl]-3,5-bis(trifluoromethyl)benzamide] | 100 | 100 | 100 | 100 | 100 | 100 |  |  |  |  |  |  |  |  |  | 
2 | CC(NC(=O)c1cc(Br)cc(Br)c1)c1nc(Cl)nn1-c1ccc(C(=O)N2CCOCC2)cn1 (racemic) [Example I-87, 3,5-Dibromo-N-[1-[5-chloro-2-[5-(morpholine-4-carbonyl)-2-pyridyl]-1,2,4-triazol-3-yl]ethyl]benzamide] | 100 | 90 | 100 | 90 |  |  |  |  |  |  |  |  |  |  |  | 
3 | C[C@H](NC(=O)c1cc(C(F)(F)F)cc(C(F)(F)F)c1)c1ncnn1-c1cc(C(=O)N2CCOCC2)ccn1 [Example I-3] | 100 | 100 |  | 90 |  |  | 100 | 90 |  |  |  |  |  |  |  | 
4 | C[C@H](NC(=O)c1cc(Cl)cc(C(F)(F)F)c1)c1ncnn1-c1ccc(C(=O)N2CCN(C)CC2)cn1 [Example I-42] | 100 |  | 100 | 80 | 80 |  |  |  |  |  |  |  |  |  |  | 
5 | CC(NC(=O)c1cc(Cl)cc(OC(F)(F)F)c1)c1nc(C(F)F)nn1-c1ccc(C(=O)N2CCOCC2)cn1 (centres unmarked) [Example I-59] |  |  | 100 | 100 | 80 |  |  |  | 100 |  |  |  |  |  |  | 
6 | C[C@H](NC(=O)c1cc(C(F)(F)F)cc(C(F)(F)F)c1)c1ncnn1-c1ccc(C(=O)N2CCOC[C@@H]2C)cn1 [Example I-67] | 100 | 100 |  |  | 100 | 100 |  | 100 |  | 100 | 80 to 100 | 80 to 100 |  |  |  | 
7 | Cc1nc([C@H](C)NC(=O)c2cc(C(F)(F)F)cc(C(F)(F)F)c2)n(-c2ccc(C(=O)N3CCO[C@H](C)C3)cn2)n1 [Example I-70] | 100 | 100 |  |  | 100 | 100 | 100 | 100 |  | 100 | 80 to 100 | 80 to 100 | 90 | 90 | 80 to 100 | 
8 | Cc1nc([C@H](C)NC(=O)c2cc(C(F)(F)F)cc(C(F)(F)F)c2)n(-c2ccc(C(=O)N3CCOC[C@H]3C)cn2)n1 [Example I-72] | 100 | 100 |  |  | 100 | 100 | 100 |  |  | 100 |  | 80 to 100 |  |  |  | 
9 | C[C@@H]1CN(C(=O)c2ccc(-n3nc(C4CC4)nc3[C@H](C)NC(=O)c3cc(C(F)(F)F)cc(C(F)(F)F)c3)nc2)C[C@H](C)O1 [Example I-89] | 100 | 100 |  |  | 100 | 100 | 100 |  |  | 100 |  | 80 to 100 |  |  |  | 100
10 | C[C@H](NC(=O)c1cc(Cl)cc(C(F)(F)F)c1)c1ncnn1-c1ccc(N2CC(F)(F)C2)cn1 [Example I-108] |  |  |  | 100 |  |  |  |  |  |  |  |  |  |  |  | 
11 | C[C@H](NC(=O)c1cc(C(F)(F)F)cc(C(F)(F)F)c1)c1ncnn1-c1ccc(C(=O)N(C)C2COC2)cn1 [Example I-112] | 100 | 100 |  |  |  | 100 |  | 70 |  | 90 | 80 to 100 | 80 to 100 | 100 | 100 |  | 
